Measurements published in patent US20240148820A1 (priority 2021, published 2024).
Where no end group is shown, it is not given here.

Target: S protein of SARS-CoV-2 (Severe acute respiratory syndrome coronavirus 2, UniProt P0DTC2)
Format: binding

## IPLRGAFINGRWDSQCHRFS [U5]
  effect of U5 on P9R binding to S protein: not P9R binding to S protein
